Laboratory results published in patent US6737383B1, “Herbicidal oxadiazolidines” (priority 1999, dated 2004).

What was measured:
purple nutsedge = experiment: Test B pre/postemergence purple nutsedge; format: in vivo, Cyperus rotundus; conditions: Postemergence
In short: (§1)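 Herbicidal effect was estimated by eye on a ten-point control scale after plants spent twelve to sixteen days in a greenhouse following soil or foliar treatment. Foliar sprays targeted plants at one to four leaves; all doses were formulated in a non-phytotoxic solvent with surfactant.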

blackgrass = experiment: Test B pre/postemergence blackgrass; format: in vivo, Alopecurus myosuroides
In short: as §1

sugar beet = experiment: Test B pre/postemergence sugar beet; format: in vivo, Beta vulgaris
In short: as §1

velvetleaf = experiment: Test B pre/postemergence velvetleaf; format: in vivo, Abutilon theophrasti
In short: as §1

corn = experiment: Test B pre/postemergence corn; format: in vivo, Zea mays
In short: as §1

smallflower flatsedge = experiment: Test B flood test smallflower flatsedge; format: in vivo, Cyperus difformis
In short: (§2)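 Read-out is a visual response score from 0 (no effect) to 10 (complete control), assigned by comparison with untreated controls. Treatment was applied at the 2-leaf stage, and plants stayed in the greenhouse for twelve to sixteen days before scoring.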

pigweed = experiment: Test B pre/postemergence pigweed; format: in vivo, Amaranthus retroflexus
In short: as §1

duck salad = experiment: Test B flood test duck salad; format: in vivo, Heteranthera limosa
In short: as §2

bedstraw = experiment: Test B pre/postemergence bedstraw; format: in vivo, Galium aparine
In short: as §1

rape = experiment: Test B pre/postemergence rape; format: in vivo, Brassica napus
In short: as §1

morningglory = experiment: Test B pre/postemergence morningglory; format: in vivo, Ipomoea hederacea
In short: as §1

soybean = experiment: Test B pre/postemergence soybean; format: in vivo, Glycine max
In short: as §1

rice = experiment: Test B flood test rice; format: in vivo, Oryza sativa
In short: as §2

giant foxtail = experiment: Test B pre/postemergence giant foxtail; format: in vivo, Setaria faberii
In short: as §1

surinam grass = experiment: Test B pre/postemergence surinam grass; format: in vivo, Brachiaria decumbens
In short: as §1

bamyardgrass = experiment: Test B flood test barnyardgrass; format: in vivo, Echinochloa crus-galli
In short: as §2

[1] = Postemergence, Rate 250 g/ha, scale 0 to 10, 0 no effect, 10 complete control
[2] = Postemergence, Rate 1000 g/ha, scale 0 to 10 (0 no effect, 10 complete control)
[3] = Preemergence, Rate 125 g/ha, scale 0 to 10 (0 no effect, 10 complete control)
[4] = Preemergence, Rate 250 g/ha, scale of 0 to 10 where 0 is no effect and 10 is complete control
[5] = Preemergence, Rate 500 g/ha, scale 0 (no effect) to 10 (complete control)
[6] = Rate 125 g/ha, Postemergence, scale 0 to 10, 0 no effect, 10 complete control
[7] = Rate 500 g/ha, Postemergence, 0 to 10 scale (0 no effect, 10 complete control)
[8] = Rate 1000 g/ha, Preemergence, scale 0 to 10 (0 no effect, 10 complete control)
[9] = Rate 125 g/ha, Postemergence section (flood test species), scale 0 to 10, 0 no effect, 10 complete control
[10] = flood test, listed under Postemergence, Rate 250 g/ha, scale 0 to 10, 0 no effect, 10 complete control
[11] = Rate 500 g/ha, Postemergence section of Table B, 0 to 10 scale (0 no effect, 10 complete control)

Compound: CCN(CC)C(=O)n1oc(=O)n(-c2ccc(OC)cc2)c1=O [Compound 1]
- Nutsedge plant response rating (purple nutsedge; Rate 250 g/ha, scale 0 to 10, 0 no effect, 10 complete control): 0
- Nutsedge plant response rating (purple nutsedge; Rate 1000 g/ha, scale 0 to 10 (0 no effect, 10 complete control)): 0
- Nutsedge plant response rating (purple nutsedge; Rate 125 g/ha, scale 0 to 10, 0 no effect, 10 complete control): 0
- Nutsedge plant response rating (purple nutsedge; Rate 500 g/ha, 0 to 10 scale (0 no effect, 10 complete control)): 0
- Blackgrass plant response rating (blackgrass; [1]): 0
- Blackgrass plant response rating (blackgrass; [2]): 8
- Plant response rating, Blackgrass (blackgrass; [3]): 0
- Plant response rating, Blackgrass (blackgrass; [4]): 0
- Blackgrass plant response rating (blackgrass; [5]): 2
- Blackgrass plant response rating (blackgrass; [6]): 0
- Blackgrass plant response rating (blackgrass; [7]): 2
- Plant response rating, Blackgrass (blackgrass; [8]): 4
- Sugarbeets plant response rating (sugar beet; [1]): 0
- Sugarbeets plant response rating (sugar beet; [2]): 5
- Plant response rating, Sugarbeets (sugar beet; [3]): 0
- Plant response rating, Sugarbeets (sugar beet; [4]): 0
- Sugarbeets plant response rating (sugar beet; [5]): 0
- Sugarbeets plant response rating (sugar beet; [6]): 0
- Plant response rating, Sugarbeets (sugar beet; [8]): 0
- Velvetleaf plant response rating (velvetleaf; [1]): 0
- Velvetleaf plant response rating (velvetleaf; [2]): 0
- Plant response rating, Velvetleaf (velvetleaf; [3]): 0
- Plant response rating, Velvetleaf (velvetleaf; [4]): 0
- Velvetleaf plant response rating (velvetleaf; [5]): 0
- Velvetleaf plant response rating (velvetleaf; [6]): 0
- Plant response rating, Velvetleaf (velvetleaf; [8]): 3
- Corn plant response rating (corn; [1]): 0
- Corn plant response rating (corn; [2]): 0
- Plant response rating, Corn (corn; [3]): 0
- Plant response rating, Corn (corn; [4]): 0
- Corn plant response rating (corn; [5]): 5
- Corn plant response rating (corn; [6]): 0
- Corn plant response rating (corn; [7]): 0
- Plant response rating, Corn (corn; [8]): 7
- S. Flatsedge plant response rating (smallflower flatsedge; [2]): 0
- S. Flatsedge plant response rating (smallflower flatsedge; [9]): 0
- S. Flatsedge plant response rating (smallflower flatsedge; [10]): 0
- Redroot pigweed plant response rating (pigweed; [1]): 4
- Redroot pigweed plant response rating (pigweed; [2]): 9
- Plant response rating, Redroot pigweed (pigweed; [3]): 0
- Plant response rating, Redroot pigweed (pigweed; [4]): 0
- Redroot pigweed plant response rating (pigweed; [5]): 2
- Redroot pigweed plant response rating (pigweed; [6]): 2
- Redroot pigweed plant response rating (pigweed; [7]): 8
- Plant response rating, Redroot pigweed (pigweed; [8]): 2
- Ducksalad plant response rating (duck salad; [2]): 0
- Ducksalad plant response rating (duck salad; [9]): 0
- Ducksalad plant response rating (duck salad; [11]): 0
- Ducksalad plant response rating (duck salad; [10]): 0
- Bedstraw plant response rating (bedstraw; [1]): 0
- Bedstraw plant response rating (bedstraw; [2]): 0
- Plant response rating, Bedstraw (bedstraw; [3]): 0
- Plant response rating, Bedstraw (bedstraw; [4]): 0
- Bedstraw plant response rating (bedstraw; [5]): 0
- Bedstraw plant response rating (bedstraw; [6]): 0
- Bedstraw plant response rating (bedstraw; [7]): 0
- Plant response rating, Bedstraw (bedstraw; [8]): 0
- Rape plant response rating (rape; [1]): 0
- Rape plant response rating (rape; [2]): 4
- Plant response rating, Rape (rape; [3]): 0
- Plant response rating, Rape (rape; [4]): 0
- Rape plant response rating (rape; [5]): 0
- Rape plant response rating (rape; [6]): 0
- Rape plant response rating (rape; [7]): 2
- Plant response rating, Rape (rape; [8]): 0
- Morningglory plant response rating (morningglory; [1]): 0
- Morningglory plant response rating (morningglory; [2]): 0
- Plant response rating, Morningglory (morningglory; [3]): 0
- Plant response rating, Morningglory (morningglory; [4]): 0
- Morningglory plant response rating (morningglory; [5]): 0
- Morningglory plant response rating (morningglory; [6]): 0
- Morningglory plant response rating (morningglory; [7]): 0
- Plant response rating, Morningglory (morningglory; [8]): 0
- Soybean plant response rating (soybean; [1]): 0
- Soybean plant response rating (soybean; [2]): 2
- Plant response rating, Soybean (soybean; [3]): 0
- Plant response rating, Soybean (soybean; [4]): 0
- Soybean plant response rating (soybean; [5]): 0
- Soybean plant response rating (soybean; [6]): 0
- Plant response rating, Soybean (soybean; [8]): 0
- Rice plant response rating (rice; [2]): 0
- Rice plant response rating (rice; [9]): 0
- Rice plant response rating (rice; [11]): 0
- Rice plant response rating (rice; [10]): 0
- Giant foxtail plant response rating (giant foxtail; [1]): 2
- Giant foxtail plant response rating (giant foxtail; [2]): 8
- Plant response rating, Giant foxtail (giant foxtail; [3]): 7
- Plant response rating, Giant foxtail (giant foxtail; [4]): 8
- Giant foxtail plant response rating (giant foxtail; [5]): 9
- Giant foxtail plant response rating (giant foxtail; [6]): 0
- Giant foxtail plant response rating (giant foxtail; [7]): 8
- Plant response rating, Giant foxtail (giant foxtail; [8]): 9
- B. signalgrass plant response rating (surinam grass; [1]): 7
- B. signalgrass plant response rating (surinam grass; [2]): 6
- Plant response rating, B. signalgrass (surinam grass; [3]): 0
- Plant response rating, B. signalgrass (surinam grass; [4]): 0
- B. signalgrass plant response rating (surinam grass; [5]): 6
- B. signalgrass plant response rating (surinam grass; [6]): 0
- B. signalgrass plant response rating (surinam grass; [7]): 7
- Plant response rating, B. signalgrass (surinam grass; [8]): 8
- Barnyardgrass plant response rating (bamyardgrass; [2]): 0
- Barnyardgrass plant response rating (bamyardgrass; [9]): 0
- Barnyardgrass plant response rating (bamyardgrass; [11]): 0
- Barnyardgrass plant response rating (bamyardgrass; [10]): 0
